Measurements: patent publication US20200093128A1, “ACIDULATED SURFACTANT COMPOSITIONS AND METHODS OF REDUCING MICROBIAL LOAD” (The United States of America, as represented by the …, priority 2018, published 2020)
Where two headings read alike, the source gives them in different places. Marks after values point to notes of the source that are not given here.

Legend:
[1] = pH of wash solution; format: physicochemical; settings: wash solutions of the grape tomato test (Table 4)
[2] = system: Aerobic Bacteria; settings: cited from earlier work
[3] = system: Salmonella; format: cell-based, S. enterica; settings: dip-inoculated grape tomatoes, 100 ml wash, 2 min
Description: (§1) This example illustrates an embodiment of the effectiveness of the inventive composition. […]. The four most acid-resistant strains out of the fourteen were selected for use in this study. These four strains consisted of cattle isolate #'s 199, 758, 851, and 859, provided by Dr. T. G. Nagaraja (Distinguished Microbiology Professor, Kansas State University, Department of Veterinary Medicine). Five outbreak strains of Listeria monocytogenes were used, including L499, L502, L008, L2624, and L2625, provided by Dr. Bassam Annous (USDA-ARS-ERRC). Four serovars of S. enterica (Salmonella Newport H1275 (ERRC culture collection)), St. Paul 02-517-1 (cantaloupe outbreak), Stanley H0558 (CDC stool sample, 1995 sprout outbreak), and Montevideo G4639 (1993 tomato outbreak)) were also utilized. All isolates (except for the L. monocytogenes outbreak strains) were selected for spontaneous mutants resistant to 100 ppm of the antibiotic compound nalidixic acid (L. monocytogenes is naturally resistant to 100 ppm nalidixic acid and so was plated on media containing 100 ppm nalidixic acid without need for selection of spontaneous mutants). Isolates were individually incubated for 24 h at 37° C. in 10 mL of Tryptic Soy Broth (Difco, Sparks, Md.)+100 ppm nalidixic acid (TSBN), as an antimicrobial marker and to preclude potential contamination on plates. […]

[4] = system: EHEC; settings: cited from earlier work
[5] = system: Salmonella; assay: BS EN 1276 test for sanitizer efficacy of NaClO; format: cell-based, S. enterica; settings: 0.03% bovine serum, 5 min, 22±1° C.
Description: as §1, with “plates. Suspensions were centrifuged at 1980×g for 10 min, and resuspended in 5 ml of sterile deionized water and vortexed vigorously for 3 minutes. All strains of each individual species of bacteria were composited in a single sterile 500 mL beaker for inoculation of grape tomatoes.” for “plates.”

[6] = system: Salmonella, E. coli, Listeria monocytogenes, coliforms or aerobic mesophilic bacteria; assay: Previous studies: produce treated with NaClO, summary of Table 1; format: cell-based; settings: Table 1 studies, average 154.2 ppm free chlorine, average treatment time 5.42 min
[7] = system: Listeria innocua; settings: Lettuce, Cl 10 PPM, 5.0 min, Francis and O'Beime (2002); cited from earlier work
[8] = system: Total Coliforms; settings: Lettuce, Cl 200 PPM, 10 min, Nascimento et al. (2003); cited from earlier work
[9] = system: Salmonella and E. coli O157:H7; settings: tomato stem scars, 200 ppm free chlorine, pH-unadjusted; cited from earlier work
[10] = system: Total Coliforms; settings: watercress, 200 ppm NaOCl, pH-unadjusted; cited from earlier work
[11] = system: E. coli O157:H7; assay: BS EN 1276 test for sanitizer efficacy of NaClO; format: cell-based; settings: 0.03% bovine serum, 5 min, 22±1° C.
Description: (§2) This example illustrates an embodiment of the effectiveness of the inventive composition. […]. The four most acid-resistant strains out of the fourteen were selected for use in this study. These four strains consisted of cattle isolate #'s 199, 758, 851, and 859, provided by Dr. T. G. Nagaraja (Distinguished Microbiology Professor, Kansas State University, Department of Veterinary Medicine). Five outbreak strains of Listeria monocytogenes were used, including L499, L502, L008, L2624, and L2625, provided by Dr. Bassam Annous (USDA-ARS-ERRC). Four serovars of S. enterica (Salmonella Newport H1275 (ERRC culture collection)), St. Paul 02-517-1 (cantaloupe outbreak), Stanley H0558 (CDC stool sample, 1995 sprout outbreak), and Montevideo G4639 (1993 tomato outbreak)) were also utilized. All isolates (except for the L. monocytogenes outbreak strains) were selected for spontaneous mutants resistant to 100 ppm of the antibiotic compound nalidixic acid (L. monocytogenes is naturally resistant to 100 ppm nalidixic acid and so was plated on media containing 100 ppm nalidixic acid without need for selection of spontaneous mutants). Isolates were individually incubated for 24 h at 37° C. in 10 mL of Tryptic Soy Broth (Difco, Sparks, Md.)+100 ppm nalidixic acid (TSBN), as an antimicrobial marker and to preclude potential contamination on plates. Suspensions were centrifuged at 1980×g for 10 min, and resuspended in 5 ml of sterile deionized water and vortexed vigorously for 3 minutes. All strains of each individual species of bacteria were composited in a single sterile 500 mL beaker for inoculation of grape tomatoes.
(§3) L. monocytogenes was plated on Thermo Scientific™ Brilliance™ Listeria Agar (BLA, ThermoFisher Scientific, Fairlawn, N.J.)+100 ppm nalidixic acid without the addition of BLA antimicrobial supplements+0.1% sodium pyruvate (to aid in recovering injured cells) (see e.g., Gurtler, J. B. & L. R. Beuchat, (2005) Appl. Environ. Microbiol. 71:7661-7669; Gurtler, J. B. & Kornacki, J. L. (2009) Lett. Appl. Microbiol. 49:503-509; Wesche, A. M., et al. (2009) J. Food Prot. 72, 1121-1138). Salmonella was plated on tryptic soy agar (Difco)+100 mg/L nalidixic acid+0.1% sodium pyruvate+80 mg/L X-α-Gal (5-Bromo-4-Chloro-3-indolyl-α-D-galactopyranoside) (Research Products Intl., Mt. Prospect, Ill.)+100 mg/L Isopropyl-β-D-thiogalactopyranoside (IPTG, Fisher Scientific). X-α-Gal induces a green color change by salmonellae colonies. E. coli O157:H7 was plated tryptic soy agar (Difco)+100 mg/L nalidixic acid+0.1% sodium pyruvate+175 mg/L red/salmon-Gal (6-Chloro-3-indolyl-β-D-galactopyranoside)+100 mg/L IPTG. Red/salmon-Gal induces a pink color change by E. coli colonies.
(§4) BS EN 1276 Test for Sanitizer Efficacy of Sodium Hypochlorite (NaClO). The British Standard, European Normalization Method 1276 for sanitizers was chosen to evaluate the efficacy low level NaClO. The level of free chlorine ranged from 10 to 48 ppm free chlorine, as tested with the LaMotte Model CL-BR 3624 titration kit (Chestertown, Md.). The BS EN 1276 method as well as the French AFNOR NFT 72170 method has been traditionally used to evaluate sanitizer effectiveness (see e.g., Jacquet, C., and Reynaud, A. (1994) Int. J. Food Microbiol. 22:79-83; Taylor, J. H., et al. (1999) Int. J. Appl. Microbiol. 87:718-725). The BS EN 1276 method involves adding 0.03% bovine albumin to represent clean conditions and 0.3% albumin for dirty conditions. Briefly, 1 ml of either 0.03% or 0.3% bovine serum was added to a sterile 15 ml test tube, followed by 1 ml of the ca. 9 log CFU/ml test solution of each bacterial composite. The suspension was permitted to sit for 2 min and then 8 ml of an appropriately diluted NaClO solution was added to the 2 ml of bacteria-bovine solution suspension where concentrations of sanitizer solution were adjusted to mathematically account for the 2:8 dilution with the pathogen suspension at 10 ppm, 16 ppm, and 48 ppm. All tests were conducted at 22±1° C. […]

[12] = system: Listeria Monocytogenes; assay: BS EN 1276 test for sanitizer efficacy of NaClO; format: cell-based; settings: 0.03% bovine serum, 5 min, 22±1° C.
Description: as §2, §3, §4

[13] = system: E. coli O157:H7; format: cell-based; settings: dip-inoculated grape tomatoes, 100 ml wash, 2 min
Description: as §1

[14] = system: EHEC & Salmonella; settings: Lettuce, Cl 200 PPM, cited from earlier work
[15] = system: Salmonella; settings: Parsley, Cl 100 PPM, 5 min, Lapidot et al. (2006); cited from earlier work
[16] = system: L. monocytogenes; format: cell-based, Listeria monocytogenes; settings: dip-inoculated grape tomatoes, 100 ml wash, 2 min
Description: as §1

[17] = system: L. monocytogenes; settings: cited from earlier work
[18] = system: S. enterica, L. monocytogenes or E. coli O157:H7; assay: BS EN 1276 chlorine test, summary over the three pathogens; format: cell-based; settings: 48 ppm chlorine, 5 min, 3% bovine albumin (dirty conditions)
[19] = system: Salmonella and E. coli O157:H7; settings: strawberries, 6.44 pH-adjusted free chlorine, 198 ppm; cited from earlier work
[20] = system: E. coli; settings: Cl 100 PPM, 10.0 min, cited from earlier work

## OCl [NaClO, sodium hypochlorite]
[1]
  pH Values: 9.88
[2]; Diced Tomato, Cl 200 PPM, 0.5 min, Simmons et al. (2006)
  Inactivation: 0.00 Log CFU
[2]; Lettuce, Cl 75 PPM, 5 min, Lu et al. (2007)
  Inactivation: 2.0 Log CFU
[2]; Lettuce, Cl 150 PPM, 10 min, Koseki et al. (2001)
  Inactivation: 2.0 Log CFU
[2]; Lettuce, Cl 200 PPM, 0.5 min, Simmons et al. (2006)
  Inactivation: 1.30 Log CFU
[2]; Lettuce, Cl 200 PPM, 10.0 min, Kondo et al. (2006)
  Inactivation: 0.9 Log CFU
[3]
  reduction, Salmonella: 2.60 ± 0.25 B log CFU/g
[4]; Lettuce & Spinach, Cl 600 PPM, 3.0 min, Niemera, 2007
  Inactivation: 0.5 Log CFU
[4]; Lettuce, Cl 20 PPM, 1.0 min, Li et al. (2001)
  Inactivation: 1.1 Log CFU
[5]; 10 ppm free chlorine
  log CFU/mL reduction: 1.20 B ± 0.10 log CFU/mL
[5]; 16 ppm free chlorine
  log CFU/mL reduction: 2.72 A ± 0.53 log CFU/mL
[5]; 48 ppm free chlorine
  log CFU/mL reduction: 0.25 ± 0.25 log CFU/mL
[6]
  average log reduction in previous studies: 1.24 log CFU
[7]
  Inactivation: 1.5 Log CFU
[8]
  Inactivation: <2.0 Log CFU
[9]
  inactivation of pathogens: 1.53 log
[10]
  inactivation of pathogens: 1.1 log
[11]; 10 ppm free chlorine
  log CFU/mL reduction: 0.64 B^a ± 0.32^b log CFU/mL
[11]; 16 ppm free chlorine
  log CFU/mL reduction: 1.79 A ± 0.21 log CFU/mL
[11]; 48 ppm free chlorine
  log CFU/mL reduction: 0.33 ± 0.47^c log CFU/mL
[12]; 10 ppm free chlorine
  log CFU/mL reduction: 1.22 B ± 0.19 log CFU/mL
[12]; 16 ppm free chlorine
  log CFU/mL reduction: 2.77 A ± 0.36 log CFU/mL
[12]; 48 ppm free chlorine
  log CFU/mL reduction: 0.53 ± 0.21 log CFU/mL
[13]
  reduction, E. coli O157:H7: 2.92 ± 0.38 BC log CFU/g
[14]; 1.0 min, Koseki et al. (2003)
  Inactivation: ca. 1.0 Log CFU
[14]; 10.0 min, Kondo et al. (2006)
  Inactivation: 1.2 Log CFU
[15]
  Inactivation: 1.7 Log CFU
[16]
  reduction, L. monocytogenes: 3.16 ± 0.61 B log CFU/g
[17]; Lettuce (4° C.), Cl 200 PPM, 10.0 min, Zhang & Farber (1996)
  Inactivation: 1.3 Log CFU
[17]; Lettuce, Cl 20 PPM, 0.5 min, Li et al. (2002)
  Inactivation: 1.2 Log CFU
[17]; Lettuce, Cl 100 PPM, 1.0 min, Hellstrom et al. (2006)
  Inactivation: 0.7 Log CFU
[17]; Lettuce, Cl 100 PPM, 5.0 min, Akbas and Oimez (2007)
  Inactivation: 1.7 Log CFU
[18]
  inactivated log: less than 0.76 log
[19]
  inactivated log CFU: 1.86 log CFU
[20]; Cabbage/Parsley, Seymot et al. (2002)
  Inactivation: ca 1.45 Log CFU
[20]; Lettuce, Seymor et al. 2002
  Inactivation: 0.72 Log CFU
